Measured values from patent US6579881B2 (Eisai Co., Ltd., priority 1997, dated 2003).

Legend:
serotonin 1A receptor = biological target: T1, serotonin 1A receptor (Rattus norvegicus, UniProt P19327); assay: Binding test on [3H] 8-hydroxy-dipropylaminotetralin (serotonin 1A receptor); details: [3H] 8-OH-DPAT 0.5 nM, receptor fraction of rat hippocampus; read-out: 5HT1a
T1 construct: To the receptor fraction of the hippocampus were added a test compound and 0.5 nM of [^3H]; 8-hydroxy-dipropylaminotetralin; from tissue; host or cells: SD rat hippocampus, membrane (receptor) fraction
T1 sequence (P19327 1-422): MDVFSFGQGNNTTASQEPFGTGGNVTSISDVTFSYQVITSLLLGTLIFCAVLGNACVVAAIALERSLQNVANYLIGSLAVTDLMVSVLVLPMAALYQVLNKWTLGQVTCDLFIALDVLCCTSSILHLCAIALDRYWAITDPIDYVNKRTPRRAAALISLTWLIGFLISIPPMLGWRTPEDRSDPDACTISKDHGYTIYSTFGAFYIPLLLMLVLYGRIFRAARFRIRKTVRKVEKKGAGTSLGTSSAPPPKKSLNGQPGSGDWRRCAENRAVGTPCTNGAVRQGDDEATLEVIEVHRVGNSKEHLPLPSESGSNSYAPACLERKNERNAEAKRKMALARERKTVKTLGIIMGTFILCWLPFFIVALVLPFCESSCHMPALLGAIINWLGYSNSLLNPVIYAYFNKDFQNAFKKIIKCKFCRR

serotonin 2 receptor = serotonin 2 receptor (Rattus norvegicus, UniProt P14842); assay: Binding test on [3H] ketanserin (serotonin 2 receptor); details: [3H] ketanserin 0.3 nM, receptor fraction of rat cerebral cortex; read-out: 5HT2
Sequence of serotonin 2 receptor (P14842 whole entry): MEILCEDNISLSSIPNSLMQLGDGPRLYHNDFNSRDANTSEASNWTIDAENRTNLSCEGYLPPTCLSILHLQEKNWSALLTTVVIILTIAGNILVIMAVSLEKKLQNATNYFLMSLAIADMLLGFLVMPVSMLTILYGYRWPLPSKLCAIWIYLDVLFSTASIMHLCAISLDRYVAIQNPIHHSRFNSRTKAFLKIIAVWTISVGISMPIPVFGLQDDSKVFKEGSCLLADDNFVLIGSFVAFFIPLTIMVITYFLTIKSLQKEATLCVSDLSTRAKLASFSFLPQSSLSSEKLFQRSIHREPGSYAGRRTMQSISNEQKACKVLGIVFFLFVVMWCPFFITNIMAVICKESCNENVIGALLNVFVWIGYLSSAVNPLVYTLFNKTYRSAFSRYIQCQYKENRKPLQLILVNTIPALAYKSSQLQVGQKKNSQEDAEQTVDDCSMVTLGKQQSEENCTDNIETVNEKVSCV

Ki (serotonin 1A receptor) [nM] | Ki (serotonin 2 receptor) [nM] | Structure (SMILES)
4.6 | 14.8 | O=C(CCl)NCc1ccc(CCN2CCC(N3CCc4ccccc43)CC2)cc1 [Example 37, 1-[1-(4-chloroacetamidomethylphenethyl)piperidin-4-yl]indoline]
14.6 | 1.1 | Fc1ccc(CCN2CCC(N3CCc4ccccc43)CC2)c(F)n1 [Example 57, 1-[1-(2,6-difluoro-3-pyridylethyl)piperidin-4-yl]indoline]
16.6 | 37.6 | NCc1ccc(CCN2CCC(N3CCc4ccccc43)CC2)cc1 [Example 35, 1-[1-(4-aminomethylphenethyl)piperidin-4-yl]indoline]
31.2 | 52.2 | c1ccc(CCN2CCC(N3CCc4ccccc43)CC2)nc1 [Example 50, 1-{1-[2-(2-pyridyl)ethyl]piperidin-4-yl}indoline]
25.4 | 28.2 | OCCc1ccc(OCCCN2CCC(N3CCc4ccccc43)CC2)cc1 [Example 71, 1-{1-[3-(4-hydroxyethylphenoxy)propyl]piperidin-4-yl}indoline]
12 | 28.9 | c1ccc2c(c1)CCN2C1CCN(CCc2ccsc2)CC1 [Example 59, 1-{1-[2-(3-thienyl)ethyl]piperidin-4-yl}indoline]
41.9 | 27.6 | OCc1ccc(OCCCN2CCC(N3CCc4ccccc43)CC2)cc1 [Example 70, 1-{1-[3-(4-hydroxymethylphenoxy)propyl]piperidin-4-yl}indoline]
7.1 | 10.3 | N#Cc1ccc(CCN2CCC(N3CCc4ccccc43)CC2)cn1 [Example 54, 1-{1-[2-(2-cyanopyridin-5-yl)ethyl]piperidin-4-yl}indoline]
1.67 | 0.05 | OC(c1cccnc1)c1ccc2c(c1)N(C1CCN(CCc3ccc(F)cc3)CC1)CC2 (centres unmarked) [Example 176, 1-[1-(4-fluorophenethyl)piperidin-4-yl]-6-[1-hydroxy-1-(3-pyridyl)methyl]indoline]
5.8 | 23.2 | CN(C)c1ccc2c(c1)N(C1CCN(CCc3ccc(F)cc3)CC1)CC2 [Example 114, 1-[1-(4-fluorophenethyl)piperidin-4-yl]-6-dimethylaminoindoline]
28.6 | 28.6 | Fc1ccc(CCCCN2CCC(N3CCc4ccccc43)CC2)cc1 [Example 15, 1-[1-(4-fluorophenylbutyl)piperidin-4-yl]indoline]
10.1 | 8.1 | Clc1cccc(CCN2CCC(N3CCc4ccccc43)CC2)c1 [Example 5, 1-[1-(3-chlorophenethyl)piperidin-4-yl]indoline]
1.67 | 1.17 | OC(c1ccc2c(c1)N(C1CCN(CCc3ccc(F)cc3)CC1)CC2)c1cncs1 (centres unmarked) [Example 196, 1-[1-(4-fluorophenethyl)piperidin-4-yl]-6-[1-(5-thiazolyl)-1-hydroxymethyl]indoline]
2.4 | 29.6 | c1ccc2c(c1)CCN2C1CCN(CCCOc2ccc3c(c2)OCO3)CC1 [Example 78, 1-{1-[3-(3,4-methylenedioxypheoxy)propyl]piperidin-4-yl}indoline]
7.7 | 1.7 | COc1cccc2c1N(C1CCN(CCc3ccc(F)cc3)CC1)CC2 [Example 107, 1-[1-(4-fluorophenethyl)piperidin-4-yl]-7-methoxyindoline]
263 | 27.1 | c1ccc2c(c1)CCN2C1CCN(CCc2cnccn2)CC1 [Example 67, 1-(1-pyrazinylethylpiperidin-4-yl)indoline]
251 | 2.7 | OCCOc1cccc2c1N(C1CCN(CCc3ccc(F)cc3)CC1)CC2 [Example 123, 1-[1-(4-fluorophenethyl)piperidin-4-yl]-7-hydroxyethoxyindoline]
0.2 | 15.2 | CS(=O)(=O)Oc1ccc2c(c1)N(C1CCN(CCc3ccc(F)cc3)CC1)CC2 [Example 122, 1-[1-(4-fluorophenethyl)piperidin-4-yl]-6-methanesulfonyloxyindoline]
0.06 | 70.1 | Cn1cccc1-c1ccc2c(c1)N(C1CCN(CCc3ccc(F)cc3)CC1)CC2 [Example 173, 1-[1-(4-fluorophenethyl)piperidin-4-yl]-6-(1-methylpyrrol-2-yl)indoline]
23.3 | 16 | Nc1ccc2c(c1)N(C1CCN(CCc3ccc(F)cc3)CC1)CC2 [Example 110, 1-[1-(4-fluorophenethyl)piperidin-4-yl]-6-aminoindoline]
8.3 | 13.1 | CC(O)c1ccc(CCN2CCC(N3CCc4ccccc43)CC2)cc1 (centres unmarked) [Example 25, 1-{4-[(1-hydroxyethyl)phenethyl]piperidin-4-yl}indoline]
47.2 | 39.5 | Brc1cnn(CCN2CCC(N3CCc4ccccc43)CC2)c1 [Example 68, 1-{1-[2-(4-bromopyrazol-1-yl)ethyl]piperidin-4-yl}indoline]

Second part, the molecule before the results:

Structure (SMILES) | Ki (serotonin 1A receptor) [nM] | Ki (serotonin 2 receptor) [nM]
OC(c1ccc(Cl)nc1)c1ccc2c(c1)N(C1CCN(CCc3ccc(F)cc3)CC1)CC2 (centres unmarked) [Example 192, 1-[1-(4-fluorophenethyl)piperidin-4-yl]-6-[1-hydroxy-1-(2-chloropyridin-5-yl)methyl]indoline] | 1.02 | 2.9
O=S(=O)(Nc1ccc2c(c1)N(C1CCN(CCc3ccc(F)cc3)CC1)CC2)c1ccc(F)cc1 [Example 119, 1-[1-(4-fluorophenethyl)piperidin-4-yl]-6-(4-fluorobenzenesulfonylamino)indoline] | 0.2 | 45.5
Fc1ccc(CCN2CCC(n3ccc4ccccc43)CC2)c(F)n1 [Example 332, 1-[1-(2,6-difluoro-3-pyridylethyl)piperidin-4-yl]indole] | 2.24 | 16.2
Fc1ccc(CCN2CCC(=C3CCc4cccnc43)CC2)cc1 [Example 256, 7-[1-(4-fluorophenethyl)piperidin-4-ylidene]-5,6-dihydropyrindine] | 0.4 | 12.1
COc1ccc(CCN2CCC(N3CCc4ccc(Cl)nc43)CC2)cc1 [Example 263, 1-[1-(4-methoxyphenethyl)piperidin-4-yl]-6-chloro-7-azaindoline] | 0.46 | > 200
Fc1ccc(CCN2CCC(N3CCc4ccc(Cn5ccnc5)cc43)CC2)cc1 [Example 211, 1-[1-(4-fluorophenethyl)piperidin-4-yl]-6-(imidazol-1-yl)methylindoline] | 0.53 | 1.21
CCN1CC[C@H](N2CCc3ccccc32)[C@H](COc2ccc(F)cc2)C1 (relative stereo) [Example 84, cis-1-[1-ethyl-3-(4-fluorophenoxymethyl)piperidin-4-yl]indoline] | > 200 | 134
OCCc1ccc(CCN2CCC(N3CCc4ccccc43)CC2)cc1 [Example 24, 1-{1-[4-(2-hydroxyethyl)phenethyl]piperidin-4-yl}indoline] | 26.5 | 174
c1ccc2c(c1)CCN2C1CCN(CCc2c[nH]c3ccccc23)CC1 [Example 62, 1-{1-[(indol-3-yl)ethyl]-piperidin-4-yl}indoline] | 6.2 | 7.4
O=C(O)Cc1ccc2c(c1)N(C1CCN(CCc3ccc(F)cc3)CC1)CC2 [Example 146, 1-[1-(4-fluorophenethyl)piperidin-4-yl]-6-carboxymethylindoline] | 164 | > 200
CCN1CCC(N2CC(c3ccc(OC)cc3)c3ccccc32)CC1 (centres unmarked) [Example 241, 1-(1-ethylpiperidin-4-yl)-3-(4-methoxyphenyl)indoline] | 360 | 1660
CC(=O)NCc1ccc2c(c1)N(C1CCN(CCc3ccc(F)cc3F)CC1)CC2 [Example 224, 1-[1-(2,4-difluorophenethyl)piperidin-4-yl]-6-acetamidomethylindoline] | 3.09 | 5.11
O=C1OCCN1Cc1ccc2c(c1)N(C1CCN(CCc3ccc(F)cc3)CC1)CC2 [Example 208, 1-[1-(4-fluorophenethyl)piperidin-4-yl]-6-(2-oxazolidon-3-yl)methylindoline] | 2.33 | 1.05
CCNc1ccc2c(c1)N(C1CCN(CCc3ccc(F)cc3)CC1)CC2 [Example 112, 1-[1-(4-fluorophenethyl)piperidin-4-yl]-6-ethylaminoindoline] | 3.2 | 165
Fc1ccc(CCN2CCC(C3CCc4cccnc43)CC2)cc1 (centres unmarked) [Example 257, 7-[1-(4-fluorophenethyl)piperidin-4-yl]-5,6-dihydro-7H-pyrindine] | 2.8 | 0.61
Fc1ccc(CCN2CCC(N3CCc4ccc(-c5ccc(F)cc5)cc43)CC2)cc1 [Example 201, 1-[1-(4-fluorophenethyl)piperidin-4-yl]-6-(4-fluorophenyl)indoline] | 7.05 | > 200
OCCOc1ccc2c(c1)CCCC2C1CCN(CCc2ccc(F)cc2)CC1 (centres unmarked) [Example 278, 1-[2-(4-fluorophenyl)ethyl]-4-[6-(2-hydroxy)ethoxy-1,2,3,4-tetrahydronaphthalen-1-yl]piperidine] | > 200 | 3.9
Fc1ccc(CCN2CCC(n3ccc4ccc(F)cc43)CC2)cc1 [Example 333, 1-[1-(4-fluorophenethyl)piperidin-4-yl]-6-fluoroindole] | 1.08 | > 20
